The subject of this assay is HCV type 1a (pCV-H77C) in Huh-7 cells. Put plainly: Cell surface expression of HCV envelope proteins E1 and E2 by flow cytometry (FACS) in transfected Huh-7 cells. The format is cell-based, hepatitis C virus. As to conditions: Huh-7 cells transfected with type 1a pCVH77C and AR3126, interferon treatment. As to the method:
Transfected or supernatant treated Huh-7 cells were stained with anti-E1 or anti-E2 antibodies using procedures similar to those described previously by Koka et al. A goat anti-mouse IgG1 antibody conjugated to PE was used for labeling of the primary antibody. Flow cytometric analyses were performed on a Becton-Dickinson FACSCAN.
Huh-7 cells (1×10^7) were transfected/co-transfected with plasmid DNA at 60–70% confluency in T-75 tissue culture flasks. In some experiments transfection was carried out in 6-well plates (3×10^6 cells per well and 2 μg of each plasmid). Ten μgs of each plasmid was added to 0.45 ml of serum-free RPMI and mixed with 180 μl of superfect transfection reagent from Quiagen. The mixture was incubated at room temperature for 10 min after which 3 ml of RPMI containing 10% fetal bovine serum was then added. The mixture was then layered on Huh-7 cells and incubated at 37° C. for 6 h. The cell culture medium was changed regularly until the cells were harvested for labeling with appropriate antibodies or RNA isolation.
Viral protein synthesis was monitored by assaying cell surface expression of viral envelope proteins E1 and E2 by fluorescent activated cell sorting (FACS). Cell surface expression of HCV E1 and E2 was determined by flow cytometry following a procedure as previously described. […]

For the substance gamma: interferon gamma, the E1/E2 expression entry was “inhibited E1/E2 expression only marginally”.

The values are drawn from patent publication US7183095B2, “Cell culture system for synthesis of infectious hepatitis C virus” (priority 2001, dated 2007).
